Source: the NIST ThermoML archive (doi:10.1021/je0601208)

Key:
[1] = xn = mol fraction of the nth substance listed
[2] = refractive index (Na D-line) (dimensionless); xn = mol fraction of the nth substance listed; settings: 100.5 kPa, Liquid, Standard Abbe refractometry

CCOC(=O)c1ccccc1 [ethyl benzoate] + CCO
Settings	refractive index, 288.15 K	refractive index, 298.15 K	refractive index, 308.15 K	refractive index, 318.15 K	surface tension liquid-gas, 288.15 K [mN/m]	surface tension liquid-gas, 298.15 K [mN/m]	surface tension liquid-gas, 308.15 K [mN/m]	surface tension liquid-gas, 318.15 K [mN/m]
[1], x1 = 0.05	–	–	–	–	23.9	23.1	22.2	21.3
[1], x1 = 0.1	–	–	–	–	24.7	23.9	23	22.1
[1], x1 = 0.15	–	–	–	–	25.5	24.6	23.7	22.8
[1], x1 = 0.2	–	–	–	–	26.2	25.3	24.4	23.5
[1], x1 = 0.25	–	–	–	–	26.9	26	25	24.1
[1], x1 = 0.3	–	–	–	–	27.5	26.6	25.6	24.7
[1], x1 = 0.35	–	–	–	–	28.1	27.2	26.1	25.3
[1], x1 = 0.4	–	–	–	–	28.7	27.7	26.7	25.8
[1], x1 = 0.45	–	–	–	–	29.2	28.3	27.2	26.3
[1], x1 = 0.5	–	–	–	–	29.7	28.7	27.7	26.8
[1], x1 = 0.55	–	–	–	–	30.2	29.2	28.1	27.3
[1], x1 = 0.6	–	–	–	–	30.7	29.7	28.6	27.8
[1], x1 = 0.65	–	–	–	–	31.2	30.2	29.1	28.3
[1], x1 = 0.7	–	–	–	–	31.8	30.8	29.6	28.8
[1], x1 = 0.75	–	–	–	–	32.3	31.3	30.1	29.3
[1], x1 = 0.8	–	–	–	–	32.9	31.9	30.6	29.8
[1], x1 = 0.85	–	–	–	–	33.6	32.5	31.2	30.4
[1], x1 = 0.9	–	–	–	–	34.3	33.2	31.9	31
[1], x1 = 0.95	–	–	–	–	35	33.9	32.6	31.8
[1], x1 = 1	–	–	–	–	35.7	34.6	33.3	32.5
[2], x1 = 0.05	1.38111	1.37682	1.37237	1.36815	–	–	–	–
[2], x1 = 0.1	1.39597	1.39165	1.38717	1.38279	–	–	–	–
[2], x1 = 0.15	1.40895	1.40452	1.39997	1.39551	–	–	–	–
[2], x1 = 0.2	1.42035	1.41593	1.41131	1.40679	–	–	–	–
[2], x1 = 0.25	1.43037	1.42598	1.42135	1.41678	–	–	–	–
[2], x1 = 0.3	1.43936	1.43498	1.43033	1.42576	–	–	–	–
[2], x1 = 0.35	1.44743	1.44303	1.4384	1.43378	–	–	–	–
[2], x1 = 0.4	1.45479	1.45038	1.44571	1.44105	–	–	–	–
[2], x1 = 0.45	1.46145	1.45702	1.45236	1.44765	–	–	–	–
[2], x1 = 0.5	1.4675	1.46309	1.45841	1.45369	–	–	–	–
[2], x1 = 0.55	1.47305	1.46865	1.46393	1.45918	–	–	–	–
[2], x1 = 0.6	1.47816	1.47372	1.46901	1.46424	–	–	–	–
[2], x1 = 0.65	1.48283	1.4784	1.47368	1.4689	–	–	–	–
[2], x1 = 0.7	1.48715	1.48273	1.47801	1.47321	–	–	–	–
[2], x1 = 0.75	1.49115	1.48675	1.48203	1.47724	–	–	–	–
[2], x1 = 0.8	1.49488	1.49047	1.48578	1.48098	–	–	–	–
[2], x1 = 0.85	1.4984	1.49401	1.48929	1.48449	–	–	–	–
[2], x1 = 0.9	1.5017	1.49731	1.49257	1.48776	–	–	–	–
[2], x1 = 0.95	1.50477	1.50037	1.49565	1.49086	–	–	–	–
[2], x1 = 1	1.5076	1.50328	1.49863	1.49391	–	–	–	–
